Reference: the NIST ThermoML archive (doi:10.1021/je050010l)

What was measured:
[1] = refractive index (Na D-line) (dimensionless); xn = mol fraction of the nth substance listed; details: 100.8 kPa, Liquid, Standard Abbe refractometry
[2] = xn = mol fraction of the nth substance listed; details: 100.8 kPa, Liquid; for viscosity: Capillary tube (Ostwald / Ubbelohde) method

CC(C)CC(C)(C)C [2,2,4-trimethylpentane] + CC(C)=O
Details | mass density, 288.15 K [kg/m3] | mass density, 298.15 K [kg/m3] | mass density, 308.15 K [kg/m3] | refractive index, 288.15 K | refractive index, 298.15 K | refractive index, 308.15 K | viscosity, 288.15 K [mPa·s] | viscosity, 298.15 K [mPa·s] | viscosity, 308.15 K [mPa·s]
[1], x2 = 0 | – | – | – | 1.39404 | 1.389 | 1.38395 | – | – | –
[1], x2 = 0.0499 | – | – | – | 1.39283 | 1.38765 | 1.38256 | – | – | –
[1], x2 = 0.1 | – | – | – | 1.39158 | 1.38634 | 1.38119 | – | – | –
[1], x2 = 0.15 | – | – | – | 1.39031 | 1.38501 | 1.37981 | – | – | –
[1], x2 = 0.2 | – | – | – | 1.38905 | 1.38374 | 1.37848 | – | – | –
[1], x2 = 0.25 | – | – | – | 1.38769 | 1.3824 | 1.3771 | – | – | –
[1], x2 = 0.3 | – | – | – | 1.3864 | 1.3811 | 1.37574 | – | – | –
[1], x2 = 0.35 | – | – | – | 1.38509 | 1.37975 | 1.37434 | – | – | –
[1], x2 = 0.4 | – | – | – | 1.38374 | 1.37833 | 1.3729 | – | – | –
[1], x2 = 0.45 | – | – | – | 1.38233 | 1.37687 | 1.37142 | – | – | –
[1], x2 = 0.5 | – | – | – | 1.38086 | 1.37538 | 1.36989 | – | – | –
[1], x2 = 0.55 | – | – | – | 1.37934 | 1.37379 | 1.36831 | – | – | –
[1], x2 = 0.6 | – | – | – | 1.37774 | 1.37219 | 1.36666 | – | – | –
[1], x2 = 0.65 | – | – | – | 1.37606 | 1.3705 | 1.36495 | – | – | –
[1], x2 = 0.7 | – | – | – | 1.3743 | 1.3687 | 1.36314 | – | – | –
[1], x2 = 0.75 | – | – | – | 1.37243 | 1.36683 | 1.36126 | – | – | –
[1], x2 = 0.8 | – | – | – | 1.37045 | 1.36486 | 1.35931 | – | – | –
[1], x2 = 0.85 | – | – | – | 1.36839 | 1.36279 | 1.35726 | – | – | –
[1], x2 = 0.9 | – | – | – | 1.36624 | 1.36064 | 1.3551 | – | – | –
[1], x2 = 0.95 | – | – | – | 1.36394 | 1.35838 | 1.35285 | – | – | –
[2], x2 = 0 | 695.95 | 687.74 | 679.41 | – | – | – | 0.537 | 0.48 | 0.432
[2], x2 = 0.0499 | 697.34 | 688.89 | 680.44 | – | – | – | 0.519 | 0.465 | 0.42
[2], x2 = 0.1 | 698.86 | 690.36 | 681.77 | – | – | – | 0.505 | 0.452 | 0.408
[2], x2 = 0.15 | 700.68 | 692.07 | 683.36 | – | – | – | 0.492 | 0.44 | 0.397
[2], x2 = 0.2 | 702.68 | 693.98 | 685.16 | – | – | – | 0.479 | 0.429 | 0.387
[2], x2 = 0.25 | 705.09 | 696.24 | 687.26 | – | – | – | 0.468 | 0.419 | 0.378
[2], x2 = 0.3 | 707.68 | 698.7 | 689.56 | – | – | – | 0.456 | 0.409 | 0.369
[2], x2 = 0.35 | 710.55 | 701.44 | 692.21 | – | – | – | 0.446 | 0.399 | 0.361
[2], x2 = 0.4 | 713.76 | 704.51 | 695.1 | – | – | – | 0.436 | 0.39 | 0.353
[2], x2 = 0.45 | 717.31 | 707.86 | 698.29 | – | – | – | 0.426 | 0.382 | 0.346
[2], x2 = 0.5 | 721.15 | 711.61 | 701.91 | – | – | – | 0.416 | 0.374 | 0.338
[2], x2 = 0.55 | 725.46 | 715.73 | 705.86 | – | – | – | 0.407 | 0.366 | 0.332
[2], x2 = 0.6 | 730.17 | 720.32 | 710.3 | – | – | – | 0.398 | 0.358 | 0.325
[2], x2 = 0.65 | 735.45 | 725.44 | 715.27 | – | – | – | 0.389 | 0.35 | 0.318
[2], x2 = 0.7 | 741.35 | 731.16 | 720.79 | – | – | – | 0.38 | 0.343 | 0.312
[2], x2 = 0.75 | 747.84 | 737.51 | 727.01 | – | – | – | 0.372 | 0.336 | 0.306
[2], x2 = 0.8 | 755.3 | 744.71 | 733.99 | – | – | – | 0.364 | 0.329 | 0.299
[2], x2 = 0.85 | 763.58 | 752.89 | 742.02 | – | – | – | 0.356 | 0.322 | 0.293
[2], x2 = 0.9 | 773.12 | 762.22 | 751.12 | – | – | – | 0.348 | 0.315 | 0.287
[2], x2 = 0.95 | 784.18 | 773.02 | 761.68 | – | – | – | 0.341 | 0.309 | 0.281
